Experimental data published in PubChem BioAssay (NCI).
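Five concentrations, 48 hours, 96-well plates. At the GI50, growth is halved. At the TGI there is no net growth.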

Assays:
Experiment in all cases: NCI anticancer screen, dose series, 48 h
[1] = test system: MALME-3M melanoma
[2] = test system: SN12C renal
[3] = test system: NCI-H460 lung
[4] = test system: K-562 leukemia
[5] = test system: MDA-MB-435
[6] = test system: TK-10 renal
[7] = test system: SNB-19 CNS
[8] = test system: A498 renal
[9] = test system: OVCAR-3 ovarian
[10] = test system: SK-MEL-2 melanoma
[11] = test system: 786-0 renal
[12] = test system: HS 578T breast
[13] = test system: ACHN renal
[14] = test system: MOLT-4 leukemia
[15] = test system: HL-60(TB) leukemia
[16] = test system: CAKI-1 renal
[17] = test system: COLO 205 colon
[18] = test system: NCI/ADR-RES ovarian
[19] = test system: EKVX NSCLC
[20] = test system: LOX IMVI melanoma
[21] = test system: UACC-257 melanoma
[22] = test system: HCT-116 colon
[23] = test system: HOP-92 NSCLC
[24] = test system: M14 melanoma
[25] = test system: KM12 colon
[26] = test system: SNB-75 CNS
[27] = test system: SK-OV-3 ovarian
[28] = test system: BT-549 breast
[29] = test system: HCC-2998 colon
[30] = test system: SW-620 colon
[31] = test system: RXF 393 renal
[32] = test system: SR leukemia
[33] = test system: SK-MEL-28 melanoma
[34] = test system: A549 NSCLC
[35] = test system: MCF7 breast
[36] = test system: SK-MEL-5 melanoma
[37] = test system: HCT-15 colon
[38] = test system: CCRF-CEM leukemia
[39] = test system: NCI-H226 lung
[40] = test system: OVCAR-8 ovarian
[41] = test system: MDA-MB-231 breast
[42] = test system: UO-31 renal
[43] = test system: RPMI-8226 leukemia
[44] = test system: SF-295 CNS
[45] = test system: OVCAR-4 ovarian
[46] = test system: HT29 colon
[47] = test system: T-47D breast
[48] = test system: PC-3 prostate
[49] = test system: SF-268 CNS
[50] = test system: SF-539 CNS
[51] = test system: UACC-62 melanoma
[52] = test system: OVCAR-5 ovarian
[53] = test system: IGROV1 ovarian
[54] = test system: NCI-H522 lung
[55] = test system: NCI-H23 lung
[56] = test system: DU-145 prostate
[57] = test system: HOP-62 NSCLC
[58] = test system: U251 CNS

**Q.** CCN(CC)c1ccc(/C=N/NC(=O)c2ccc(S(N)(=O)=O)cc2)c(O)c1 was tested. Which GI50 [1] did it give?
**A.** 482 nM

**Q.** And the TGI [1]?
**A.** 9430 nM

**Q.** And the GI50 [2]?
**A.** 638 nM

**Q.** And the TGI [2]?
**A.** > 64800 nM

**Q.** And the GI50 [3]?
**A.** 467 nM

**Q.** What about the TGI [3] of the same molecule?
**A.** 6730 nM

**Q.** And the GI50 [4]?
**A.** 408 nM

**Q.** And the TGI [4]?
**A.** > 100000 nM

**Q.** And the GI50 [5]?
**A.** 659 nM

**Q.** What about the TGI [5] of the same molecule?
**A.** > 100000 nM

**Q.** What about the GI50 [6] of the same molecule?
**A.** 373 nM

**Q.** What about the TGI [6] of the same molecule?
**A.** 40100 nM

**Q.** And the GI50 [7]?
**A.** 669 nM

**Q.** What about the TGI [7] of the same molecule?
**A.** 29900 nM

**Q.** What about the GI50 [8] of the same molecule?
**A.** 982 nM

**Q.** What about the TGI [8] of the same molecule?
**A.** 32700 nM

**Q.** And the GI50 [9]?
**A.** 137 nM

**Q.** And the TGI [9]?
**A.** > 100000 nM

**Q.** And the GI50 [10]?
**A.** 2250 nM

**Q.** And the TGI [10]?
**A.** 53100 nM

**Q.** And the GI50 [11]?
**A.** 370 nM

**Q.** And the TGI [11]?
**A.** 8870 nM

**Q.** And the GI50 [12]?
**A.** 2250 nM

**Q.** What about the TGI [12] of the same molecule?
**A.** > 68000 nM

**Q.** And the GI50 [13]?
**A.** 465 nM

**Q.** And the TGI [13]?
**A.** > 100000 nM

**Q.** And the GI50 [14]?
**A.** 322 nM

**Q.** And the TGI [14]?
**A.** > 100000 nM

**Q.** And the GI50 [15]?
**A.** 206 nM

**Q.** What about the GI50 [16] of the same molecule?
**A.** 393 nM

**Q.** What about the TGI [16] of the same molecule?
**A.** 30900 nM

**Q.** What about the GI50 [17] of the same molecule?
**A.** 296 nM

**Q.** And the TGI [17]?
**A.** 27000 nM

**Q.** What about the GI50 [18] of the same molecule?
**A.** 1390 nM

**Q.** What about the TGI [18] of the same molecule?
**A.** > 100000 nM

**Q.** What about the GI50 [19] of the same molecule?
**A.** 397 nM

**Q.** What about the TGI [19] of the same molecule?
**A.** > 100000 nM

**Q.** And the GI50 [20]?
**A.** 187 nM

**Q.** What about the TGI [20] of the same molecule?
**A.** 3610 nM

**Q.** And the GI50 [21]?
**A.** 404 nM

**Q.** And the TGI [21]?
**A.** 5330 nM

**Q.** And the GI50 [22]?
**A.** 205 nM

**Q.** And the TGI [22]?
**A.** 56700 nM

**Q.** And the GI50 [23]?
**A.** 216 nM

**Q.** What about the TGI [23] of the same molecule?
**A.** 13100 nM

**Q.** And the GI50 [24]?
**A.** 351 nM

**Q.** And the TGI [24]?
**A.** 7140 nM

**Q.** And the GI50 [25]?
**A.** 579 nM

**Q.** And the TGI [25]?
**A.** > 100000 nM

**Q.** And the GI50 [26]?
**A.** 351 nM

**Q.** And the GI50 [27]?
**A.** 394 nM

**Q.** And the TGI [27]?
**A.** 18400 nM

**Q.** And the GI50 [28]?
**A.** 480 nM

**Q.** And the TGI [28]?
**A.** 7730 nM

**Q.** And the GI50 [29]?
**A.** 419 nM

**Q.** What about the TGI [29] of the same molecule?
**A.** > 80100 nM

**Q.** What about the GI50 [30] of the same molecule?
**A.** 429 nM

**Q.** What about the TGI [30] of the same molecule?
**A.** > 100000 nM

**Q.** What about the GI50 [31] of the same molecule?
**A.** 541 nM

**Q.** What about the TGI [31] of the same molecule?
**A.** 8710 nM

**Q.** What about the GI50 [32] of the same molecule?
**A.** 63.1 nM

**Q.** And the GI50 [33]?
**A.** 352 nM

**Q.** And the TGI [33]?
**A.** > 64500 nM

**Q.** And the GI50 [34]?
**A.** 1440 nM

**Q.** What about the TGI [34] of the same molecule?
**A.** > 100000 nM

**Q.** And the GI50 [35]?
**A.** 399 nM

**Q.** What about the TGI [35] of the same molecule?
**A.** > 100000 nM

**Q.** And the GI50 [36]?
**A.** 537 nM

**Q.** And the TGI [36]?
**A.** > 20300 nM

**Q.** What about the GI50 [37] of the same molecule?
**A.** 318 nM

**Q.** What about the TGI [37] of the same molecule?
**A.** > 100000 nM

**Q.** And the GI50 [38]?
**A.** 105 nM

**Q.** And the TGI [38]?
**A.** > 100000 nM

**Q.** What about the GI50 [39] of the same molecule?
**A.** 821 nM

**Q.** And the TGI [39]?
**A.** > 29600 nM

**Q.** What about the GI50 [40] of the same molecule?
**A.** 279 nM

**Q.** And the TGI [40]?
**A.** > 49600 nM

**Q.** What about the GI50 [41] of the same molecule?
**A.** 389 nM

**Q.** And the TGI [41]?
**A.** 28600 nM

**Q.** And the GI50 [42]?
**A.** 399 nM

**Q.** What about the TGI [42] of the same molecule?
**A.** > 100000 nM

**Q.** And the GI50 [43]?
**A.** 3640 nM

**Q.** And the TGI [43]?
**A.** > 100000 nM

**Q.** What about the GI50 [44] of the same molecule?
**A.** 528 nM

**Q.** What about the TGI [44] of the same molecule?
**A.** 20500 nM

**Q.** What about the GI50 [45] of the same molecule?
**A.** 304 nM

**Q.** And the TGI [45]?
**A.** > 85400 nM

**Q.** And the GI50 [46]?
**A.** 485 nM

**Q.** And the TGI [46]?
**A.** > 54900 nM

**Q.** And the GI50 [47]?
**A.** 2030 nM

**Q.** What about the TGI [47] of the same molecule?
**A.** > 100000 nM

**Q.** What about the GI50 [48] of the same molecule?
**A.** 345 nM

**Q.** And the TGI [48]?
**A.** > 100000 nM

**Q.** And the GI50 [49]?
**A.** 220 nM

**Q.** What about the TGI [49] of the same molecule?
**A.** 17200 nM

**Q.** What about the GI50 [50] of the same molecule?
**A.** 390 nM

**Q.** And the TGI [50]?
**A.** 7870 nM

**Q.** What about the GI50 [51] of the same molecule?
**A.** 346 nM

**Q.** What about the TGI [51] of the same molecule?
**A.** 5140 nM

**Q.** What about the GI50 [52] of the same molecule?
**A.** 1640 nM

**Q.** And the TGI [52]?
**A.** > 84500 nM

**Q.** What about the GI50 [53] of the same molecule?
**A.** 437 nM

**Q.** What about the TGI [53] of the same molecule?
**A.** > 100000 nM

**Q.** And the GI50 [54]?
**A.** 310 nM

**Q.** What about the TGI [54] of the same molecule?
**A.** > 45300 nM

**Q.** What about the GI50 [55] of the same molecule?
**A.** 1110 nM

**Q.** And the TGI [55]?
**A.** > 100000 nM

**Q.** And the GI50 [56]?
**A.** 540 nM

**Q.** And the TGI [56]?
**A.** > 79600 nM

**Q.** What about the GI50 [57] of the same molecule?
**A.** 226 nM

**Q.** What about the TGI [57] of the same molecule?
**A.** 7180 nM

**Q.** And the GI50 [58]?
**A.** 159 nM

**Q.** And the TGI [58]?
**A.** 16500 nM
